According to patent publication US6936585B2, “Corticotropin releasing factor 2 receptor agonists” (priority 2002, dated 2005):
Peptide text beside a SMILES is read from it.

Columns and labels:
[1] = molecular target: T1, CRF1R (Homo sapiens, UniProt P34998); assay: CRF1R agonist activation (EC50 / Emax), called comparative CRF binding; type: cell-based; settings: for Emax: read-out: CRF1R Emax; for EC50: read-out: CRF1R EC50
T1 sequence (P34998 24-415): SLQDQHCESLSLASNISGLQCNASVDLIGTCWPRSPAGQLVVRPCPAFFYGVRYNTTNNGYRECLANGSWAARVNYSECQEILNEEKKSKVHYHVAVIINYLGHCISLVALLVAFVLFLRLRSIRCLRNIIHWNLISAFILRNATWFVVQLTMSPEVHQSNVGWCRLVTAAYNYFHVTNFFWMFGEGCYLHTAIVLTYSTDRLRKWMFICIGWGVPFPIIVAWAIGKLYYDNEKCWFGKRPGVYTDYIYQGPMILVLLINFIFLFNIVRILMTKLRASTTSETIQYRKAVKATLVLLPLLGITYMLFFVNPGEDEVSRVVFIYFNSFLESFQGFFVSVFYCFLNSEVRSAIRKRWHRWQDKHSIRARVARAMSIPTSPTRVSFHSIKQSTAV
How it was run: (§1)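 Read-out is Gαs-driven cAMP induction, quantified directly in lysates or through CRE-reporter gene expression, after treating CRF1R- or CRF2R-expressing cells with peptide. Vehicle-treated cells serve as the comparison.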

[2] = molecular target: T2, CRF2R (Homo sapiens, UniProt Q13324); assay: CRF2R agonist activation (EC50 / Emax), called comparative CRF binding; type: cell-based; settings: for Emax: read-out: CRF2R Emax; for EC50: read-out: CRF2R EC50
T2 sequence (Q13324 1-411): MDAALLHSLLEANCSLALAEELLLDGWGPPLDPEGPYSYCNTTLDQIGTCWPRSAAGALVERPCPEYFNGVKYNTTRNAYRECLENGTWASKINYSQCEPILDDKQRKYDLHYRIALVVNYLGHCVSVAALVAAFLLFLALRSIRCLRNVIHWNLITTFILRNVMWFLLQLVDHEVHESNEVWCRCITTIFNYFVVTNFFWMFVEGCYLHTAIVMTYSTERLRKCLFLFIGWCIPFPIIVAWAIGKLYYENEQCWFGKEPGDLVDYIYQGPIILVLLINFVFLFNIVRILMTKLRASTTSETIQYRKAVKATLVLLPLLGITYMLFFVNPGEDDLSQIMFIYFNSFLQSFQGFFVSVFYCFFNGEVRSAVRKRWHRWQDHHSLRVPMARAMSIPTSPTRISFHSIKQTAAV
How it was run: as §1

CC[C@H](C)[C@H](N)C(=O)N[C@H](C(=O)N[C@@H](CC(C)C)C(=O)N[C@@H](CO)C(=O)N[C@@H](CC(C)C)C(=O)N[C@@H](CC(=O)O)C(=O)N[C@H](C(=O)N1CCC[C@H]1C(=O)N[C@H](C(=O)NCC(=O)N[C@@H](CC(C)C)C(=O)N[C@@H](CC(C)C)C(=O)N[C@@H](CCC(N)=O)C(=O)N[C@H](C(=O)N[C@@H](CC(C)C)C(=O)N[C@@H](CC(C)C)C(=O)N[C@@H](CCC(=O)O)C(=O)N[C@@H](CCC(N)=O)C(=O)N[C@@H](CCC(=O)O)C(=O)N[C@@H](CCCCN)C(=O)N[C@@H](CCC(N)=O)C(=O)N[C@@H](CCC(=O)O)C(=O)N[C@@H](CCCCN)C(=O)N[C@@H](CCC(=O)O)C(=O)N[C@@H](CCCCN)C(=O)N[C@@H](CCC(N)=O)C(=O)N[C@@H](CCC(N)=O)C(=O)N[C@@H](C)C(=O)N[C@H](C(=O)N[C@H](C(=O)N[C@@H](CC(N)=O)C(=O)N[C@@H](C)C(=O)N[C@@H](CCCNC(=N)N)C(=O)N[C@H](C(=O)N[C@@H](CC(C)C)C(=O)N[C@@H](C)C(=O)N[C@@H](CCCNC(=N)N)C(=O)N[C@H](C(N)=O)C(C)C)[C@@H](C)CC)[C@@H](C)O)[C@@H](C)O)[C@@H](C)CC)[C@@H](C)CC)C(C)C)C(C)C [compound 167] (H-IVLSLDVPIGLLQILLEQEKQEKEKQQATTNARILARV-NH2; N-terminus assumed)
Emax [1]: 15%
Emax [2]: 100%

CC[C@H](C)[C@H](N)C(=O)N[C@H](C(=O)N[C@@H](CC(C)C)C(=O)N[C@@H](CO)C(=O)N[C@@H](CC(C)C)C(=O)N[C@@H](CC(=O)O)C(=O)N[C@H](C(=O)N1CCC[C@H]1C(=O)N[C@H](C(=O)NCC(=O)N[C@@H](CC(C)C)C(=O)N[C@@H](CC(C)C)C(=O)N[C@@H](CCC(N)=O)C(=O)N[C@H](C(=O)N[C@@H](CC(C)C)C(=O)N[C@H](C(=O)N[C@@H](CCC(=O)O)C(=O)N[C@H](C(=O)N[C@@H](CCC(=O)O)C(=O)N[C@@H](CCCCN)C(=O)N[C@@H](CCC(N)=O)C(=O)N[C@@H](CCC(=O)O)C(=O)N[C@@H](CCCCN)C(=O)N[C@@H](CCC(=O)O)C(=O)N[C@@H](CCCCN)C(=O)N[C@@H](CCC(N)=O)C(=O)N[C@@H](CCC(N)=O)C(=O)N[C@@H](C)C(=O)N[C@@H](C)C(=O)N[C@H](C(=O)N[C@H](C(=O)N[C@@H](CC(N)=O)C(=O)N[C@@H](C)C(=O)N[C@@H](CCCNC(=N)N)C(=O)N[C@H](C(=O)N[C@@H](CC(C)C)C(=O)N[C@@H](C)C(=O)N[C@@H](CCCNC(=N)N)C(=O)N[C@H](C(N)=O)C(C)C)[C@@H](C)CC)[C@@H](C)O)[C@@H](C)O)[C@@H](C)CC)[C@@H](C)CC)[C@@H](C)CC)[C@@H](C)CC)C(C)C)C(C)C [compound 168] (H-IVLSLDVPIGLLQILIEIEKQEKEKQQAATTNARILARV-NH2; N-terminus assumed)
EC50 [1]: ≥ 1000 nM
Emax [1]: 52%
EC50 [2]: 4.9 nM
Emax [2]: 75%

CC[C@H](C)[C@H](NC(=O)[C@H](C)NC(=O)[C@H](CC(N)=O)NC(=O)[C@H](CCC(N)=O)NC(=O)[C@H](CCC(=O)O)NC(=O)[C@H](C)NC(=O)[C@H](CCCNC(=N)N)NC(=O)[C@H](CCC(=O)O)NC(=O)[C@H](CCCNC(=N)N)NC(=O)[C@H](CCC(N)=O)NC(=O)[C@H](CO)NC(=O)[C@H](CCC(N)=O)NC(=O)[C@@H](NC(=O)[C@H](CCCNC(=N)N)NC(=O)[C@H](C)NC(=O)[C@H](CC(C)C)NC(=O)[C@H](CCC(=O)O)NC(=O)[C@H](CC(C)C)NC(=O)[C@H](CC(C)C)NC(=O)[C@@H](NC(=O)[C@H](CCCNC(=N)N)NC(=O)[C@H](CC(C)C)NC(=O)[C@H](CC(C)C)NC(=O)[C@H](Cc1ccc(O)cc1)NC(=O)[C@@H](NC(=O)[C@@H]1CCCN1C(=O)[C@H](CC(C)C)NC(=O)[C@H](CC(=O)O)NC(=O)[C@@H](NC(=O)[C@H](CO)NC(=O)[C@H](CC(C)C)NC(=O)[C@H](CO)NC(=O)[C@@H]1CCCN1C(=O)[C@H](CC(N)=O)NC(=O)[C@@H](N)CC(=O)O)[C@@H](C)CC)[C@@H](C)O)[C@@H](C)O)[C@@H](C)O)C(=O)N[C@H](C(=O)N[C@@H](Cc1ccccc1)C(=O)N[C@@H](C)C(=O)N[C@@H](CO)C(=O)N[C@H](C(N)=O)C(C)C)[C@@H](C)CC [compound 173] (H-DNPSLSIDLPTYLLRTLLELARTQSQRERAEQNAIIFASV-NH2)
Emax [1]: 6.05%
Emax [2]: 65.2%

CC[C@H](C)[C@H](NC(=O)[C@H](C)NC(=O)[C@H](CC(N)=O)NC(=O)[C@H](CCC(N)=O)NC(=O)[C@H](CCC(=O)O)NC(=O)[C@H](C)NC(=O)[C@H](CCCNC(=N)N)NC(=O)[C@H](CCC(=O)O)NC(=O)[C@H](CCCNC(=N)N)NC(=O)[C@H](CCC(N)=O)NC(=O)[C@H](CO)NC(=O)[C@H](CCC(N)=O)NC(=O)[C@@H](NC(=O)[C@H](CCCNC(=N)N)NC(=O)[C@H](C)NC(=O)[C@H](CC(C)C)NC(=O)[C@H](CCC(=O)O)NC(=O)[C@H](CC(C)C)NC(=O)[C@H](CC(C)C)NC(=O)[C@@H](NC(=O)[C@H](CCCNC(=N)N)NC(=O)[C@H](CC(C)C)NC(=O)[C@H](CC(C)C)NC(=O)[C@H](CC(C)C)NC(=O)[C@H](CC(C)C)NC(=O)[C@@H]1CCCN1C(=O)[C@H](CC(C)C)NC(=O)[C@H](CC(=O)O)NC(=O)[C@@H](NC(=O)[C@H](CO)NC(=O)[C@H](CC(C)C)NC(=O)[C@H](CO)NC(=O)[C@@H]1CCCN1C(=O)[C@H](CC(N)=O)NC(=O)[C@@H](N)CC(=O)O)[C@@H](C)CC)[C@@H](C)O)[C@@H](C)O)C(=O)N[C@H](C(=O)N[C@@H](Cc1ccccc1)C(=O)N[C@@H](C)C(=O)N[C@@H](CO)C(=O)N[C@H](C(N)=O)C(C)C)[C@@H](C)CC [compound 174] (H-DNPSLSIDLPLLLLRTLLELARTQSQRERAEQNAIIFASV-NH2; N-terminus assumed)
Emax [1]: 29.1%
Emax [2]: 97.2%

CC[C@H](C)[C@H](NC(=O)[C@H](C)NC(=O)[C@H](CC(N)=O)NC(=O)[C@H](CCC(N)=O)NC(=O)[C@H](CCC(=O)O)NC(=O)[C@H](C)NC(=O)[C@H](CCCNC(=N)N)NC(=O)[C@H](CCC(=O)O)NC(=O)[C@H](CCCNC(=N)N)NC(=O)[C@H](CCC(N)=O)NC(=O)[C@H](CO)NC(=O)[C@H](CCC(N)=O)NC(=O)[C@@H](NC(=O)[C@H](CCCNC(=N)N)NC(=O)[C@H](C)NC(=O)[C@H](CC(C)C)NC(=O)[C@H](CCC(=O)O)NC(=O)[C@H](CC(C)C)NC(=O)[C@H](CC(C)C)NC(=O)[C@@H](NC(=O)[C@H](CCCNC(=N)N)NC(=O)[C@H](CC(C)C)NC(=O)[C@H](CC(C)C)NC(=O)[C@@H](NC(=O)[C@H](CC(C)C)NC(=O)[C@@H]1CCCN1C(=O)[C@H](CC(C)C)NC(=O)[C@H](CC(=O)O)NC(=O)[C@@H](NC(=O)[C@H](CO)NC(=O)[C@H](CC(C)C)NC(=O)[C@H](CO)NC(=O)[C@@H]1CCCN1C(=O)[C@H](CC(N)=O)NC(=O)[C@@H](N)CC(=O)O)[C@@H](C)CC)[C@@H](C)CC)[C@@H](C)O)[C@@H](C)O)C(=O)N[C@H](C(=O)N[C@@H](Cc1ccccc1)C(=O)N[C@@H](C)C(=O)N[C@@H](CO)C(=O)N[C@H](C(N)=O)C(C)C)[C@@H](C)CC [compound 175] (H-DNPSLSIDLPLILLRTLLELARTQSQRERAEQNAIIFASV-NH2; N-terminus assumed)
EC50 [1]: ≥ 1000 nM
Emax [1]: 34.8%
EC50 [2]: 5.42 nM
Emax [2]: 92.2%

CC[C@H](C)[C@H](NC(=O)[C@H](C)NC(=O)[C@H](CC(N)=O)NC(=O)[C@H](CCC(N)=O)NC(=O)[C@H](CCC(=O)O)NC(=O)[C@H](C)NC(=O)[C@H](CCCNC(=N)N)NC(=O)[C@H](CCC(=O)O)NC(=O)[C@H](CCCNC(=N)N)NC(=O)[C@H](CCC(N)=O)NC(=O)[C@H](CO)NC(=O)[C@H](CCC(N)=O)NC(=O)[C@@H](NC(=O)[C@H](CCCNC(=N)N)NC(=O)[C@H](C)NC(=O)[C@H](CC(C)C)NC(=O)[C@H](CCC(=O)O)NC(=O)[C@H](CC(C)C)NC(=O)[C@H](CC(C)C)NC(=O)[C@@H](NC(=O)[C@H](CCCNC(=N)N)NC(=O)[C@H](CC(C)C)NC(=O)[C@H](CC(C)C)NC(=O)[C@H](CCC(N)=O)NC(=O)[C@H](CC(C)C)NC(=O)[C@@H]1CCCN1C(=O)[C@H](CC(C)C)NC(=O)[C@H](CC(=O)O)NC(=O)[C@@H](NC(=O)[C@H](CO)NC(=O)[C@H](CC(C)C)NC(=O)[C@H](CO)NC(=O)[C@@H]1CCCN1C(=O)[C@H](CC(N)=O)NC(=O)[C@@H](N)CC(=O)O)[C@@H](C)CC)[C@@H](C)O)[C@@H](C)O)C(=O)N[C@H](C(=O)N[C@@H](Cc1ccccc1)C(=O)N[C@@H](C)C(=O)N[C@@H](CO)C(=O)N[C@H](C(N)=O)C(C)C)[C@@H](C)CC [compound 176] (H-DNPSLSIDLPLQLLRTLLELARTQSQRERAEQNAIIFASV-NH2; N-terminus assumed)
Emax [1]: 26.9%
Emax [2]: 90.2%
